This assay deals with LMCA1 (Listeria monocytogenes serovar 1/2a, UniProt Q8Y8Q5). Briefly: biochemical. The class given is biochemical.

Values joined by “and” are separate entries in the source; they are usually repeats but may differ in a detail not shown here. Equal entries are not always repeated. Where two headings read alike, the source gives them in different places.

Chain of LMCA1 (Q8Y8Q5 whole entry): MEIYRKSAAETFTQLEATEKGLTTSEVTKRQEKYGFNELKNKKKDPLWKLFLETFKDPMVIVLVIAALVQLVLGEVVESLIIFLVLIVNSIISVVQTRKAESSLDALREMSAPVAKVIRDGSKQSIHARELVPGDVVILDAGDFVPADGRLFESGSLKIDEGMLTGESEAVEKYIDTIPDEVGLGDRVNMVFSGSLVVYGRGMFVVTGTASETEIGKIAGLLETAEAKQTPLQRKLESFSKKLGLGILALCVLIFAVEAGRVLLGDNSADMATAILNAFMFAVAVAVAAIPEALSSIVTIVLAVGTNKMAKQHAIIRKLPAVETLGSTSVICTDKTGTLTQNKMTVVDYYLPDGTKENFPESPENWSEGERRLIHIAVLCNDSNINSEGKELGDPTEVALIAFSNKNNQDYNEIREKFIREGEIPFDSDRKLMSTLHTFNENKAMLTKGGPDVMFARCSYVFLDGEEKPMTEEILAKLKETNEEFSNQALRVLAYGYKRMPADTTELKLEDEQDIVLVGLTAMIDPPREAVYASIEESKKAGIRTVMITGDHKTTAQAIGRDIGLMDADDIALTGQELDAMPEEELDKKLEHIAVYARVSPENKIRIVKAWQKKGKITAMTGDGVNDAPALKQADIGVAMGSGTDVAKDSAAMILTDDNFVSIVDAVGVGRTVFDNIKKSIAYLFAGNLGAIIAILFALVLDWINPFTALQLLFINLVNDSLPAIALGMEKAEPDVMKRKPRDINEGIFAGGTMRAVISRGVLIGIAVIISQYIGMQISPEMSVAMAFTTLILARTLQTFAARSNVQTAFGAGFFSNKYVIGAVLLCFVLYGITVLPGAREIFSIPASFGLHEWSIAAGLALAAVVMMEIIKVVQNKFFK

As usually defined, the Hill coefficient is a measure of the steepness of the concentration-response curve. In general, IC50 refers to the concentration at which inhibition is half-maximal. Lower therefore signals higher potency. Consider `F` [NaF], for which the Hill coefficient is −2.4 and −2.4 ± 0.4; the IC50 is 2300 ± 200 µM.

Consider `[Be+2]` [BeSO4], for which half-maximal inhibition (IC50) was put at 27 ± 5 µM. For the same molecule, the Hill coefficient (absence of NaF (H2O)) is reported as −0.72 ± 0.08. In addition, where the note is “constant NaF concentration of 0.5 mM”, the Hill coefficient is −1.1 ± 0.1.

The values above are taken from publication PMC5697763 (Bioconjugate chemistry, 2016).
